Data: publication PMC5701947, “β1-Adrenergic Receptor Contains Multiple IA^k and IE^k Binding Epitopes That Induce T Cell Responses with Varying Degrees of Autoimmune Myocarditis in A/J Mice” (Frontiers in Immunology, 2017)
No end group written: not given here.

Columns and labels:
CD4 T cells [1] = assay: IE^k dextramer staining of CD4 T cells; assay type: cell-based, A/J mice; conditions: IE^k dextramers; cells from β1ARAc 181–200-immunized mice; P = 0.028 vs control dextramer; Figure 4B
Source text: To enumerate the frequencies of antigen-specific CD4 T cells, we created IA^k dextramers for β1AR 171-190 and β1AR 211–230, and IE^k dextramers for β1AR 181–200. To create IA^k dextramers, the nucleotide sequence for β1AR 171–190 ([…]) and β1AR 211–230 ([…]) was inserted into the IA^k-β construct that we had described previously ([35], [39]), whereas IA^k/RNase 43–56 (control) dextramers were readily available in our laboratory ([30], [35], [40]). The soluble, IA^k/β1AR 171–190 and IA^k/β1AR 211–230 molecules were expressed in sf9 cells using baculovirus expression system. After purifying through anti-IA^k-affinity column, the IA^k/β1AR 171–190 and IA^k/β1AR 211–230 monomers were biotinylated and dextramers were derived using streptavidin (SA)/fluorophore-conjugated dextran molecules as described previously ([35], [39]). […]
To stain with dextramers, lymphocytes obtained from lymph nodes and spleens from immunized animals were stimulated with the immunizing peptides namely, β1ARAc 171–190, β1ARAc 181–200, and β1ARAc 211–230 (20 µg/ml) for 2 days and growth medium containing interleukin (IL)-2 (IL-2 medium) was then added. […] After washing, and acquisition by flow cytometry, percent dextramer^+ (dext^+) cells were analyzed within the live cells (7-AAD^−) using Flow Jo software ([34], [35], [39]).

Balb/c mice = conditions: cited from earlier work
Source text: It has been proposed that acetylated peptides can be prevented from intracellular degradation leading to their stable binding to MHC molecules ([29], [50]). Thus, we decided to use the acetylated peptides, and focused only the peptides that were located within the stretch of β1AR 171–230 (Table 1).

[2] = test system: lymph node cell (LNC) cultures; assay: Cytokine secretion (bead array); assay type: cell-based, A/J mice; conditions: LNC supernatants, 50–100 µg/ml, day 3; P = 0.06
Protocol: Supernatants were obtained from lymph node cell (LNC) cultures prepared from immunized animals that were stimulated with or without acetylated or non-acetylated, β1AR 171–190, β1AR 181–200, and β1AR 211–230 and RNase 43–56/HEL 46–61 (controls) (50–100 µg/ml) on day 3 poststimulations. Cytokine analysis was performed using beads conjugated with capture and detection Abs with the standard curves being derived from serial dilutions of mouse cytokine standard mixtures, consisting of IL-2, interferon (IFN)-γ, IL-4, IL-6, IL-10, IL-17A, and tumor necrosis factor (TNF)-α as recommended by the manufacturer’s guidelines (BD Biosciences). Briefly, capture bead/cytokine antibody conjugates were first prepared, and the mixtures were added to a tube containing diluted standards or test samples, followed by addition of detection antibodies. After acquiring by flow cytometry, FCAP Array Software was used to analyze the data (BD Biosciences) ([26], [30]).

[3] = test system: T cells (lymph node cells/splenocytes from immunized animals); assay: T cell proliferation assay ([3H]-thymidine); assay type: cell-based, A/J mice; conditions: for T cell responses: animals immunized with pool IV, fold vs medium control
Summary of the method: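 Lymph node cells and splenocytes from immunized animals, or magnetically enriched CD4/CD8 T cells (~95% pure) plus peptide-loaded irradiated syngeneic naive splenocytes (1:1), stimulated at ~5 × 10^6 cells/ml with immunizing peptide (0–100 µg/ml) for 2 days. Pulsed with [3H]-thymidine for 16 h; proliferation read as cpm.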

A/J mice (hearts) = assay: Induction of myocarditis by active immunization with peptides (histology); assay type: in vivo; conditions: for Myocarditis incidence / Myocarditis incidence (animals with disease/total) / Inflammatory foci: individual non-acetylated peptide, 100 µg per animal; for Myocarditis incidence / Myocarditis incidence (animals with disease/total): CFA/PT, days 0 and 7, day 21; for Inflammatory foci: mean ± SEM of myocarditic animals
antigen-primed T cells = assay: Cytokine-producing cells after Th1/Th17 polarization (flow cytometry); assay type: cell-based, A/J mice; conditions: Figure S4
Protocol: Lymph node cells obtained from animals immunized with individual peptides, β1ARAc 171–190, β1ARAc 181–200, or β1ARAc 211–230 on day 21 postimmunizations were stimulated with the corresponding immunizing peptides (20 µg/ml) for 2 days followed by resting in IL-2 medium. In a separate set of experiments, animals were immunized with a mixture of β1ARAc 171–190, 181–200, and 211–230 peptides and their lymphocytes were stimulated with the immunizing peptides individually (50 µg/ml) for 2 days and then IL-2 medium was added. On day 3, one of the two aliquots of cells were exposed to a mixture of Th1- and Th17-polarizing conditions by adding recombinant mouse IL-12 (20 ng/ml), IL-1β (30 ng/ml), IL-6 (30 ng/ml), IL-23 (50 ng/ml) (all cytokines were procured from BioLegend, San Diego, CA, USA), and human transforming growth factor-β1 (10 ng/ml; eBioscience, San Diego, CA, USA) as reported previously ([41]–[44]), and the other was maintained in IL-2 medium alone. Flow cytometrically, we analyzed the percentages of cytokine-producing cells on days 3 and 6 following polarization as we have described previously ([28], [31], [40]). Viable cells harvested on days 8–10 were administered through i.p., or retro-orbital sinus (4–14 × 10^6 cells/animal) into naive mice primed with lipopolysaccharide (LPS, 25 µg/mouse i.p., day −4 and day 0). […]

CD4 T cells [4] = assay: T cell proliferation assay, enriched CD4 T cells; assay type: cell-based, A/J mice; conditions: CD4 T cells ~95% purity from immunized mice; peptide-loaded irradiated splenocytes 1:1; Figure S3B
Protocol: (§1) At termination, lymph nodes (maxillary, mandibular, axillary, inguinal, and popliteal) and spleens were harvested from immunized animals to prepare single cell suspensions. Similarly, splenocytes were prepared from naive animals. After lysing the erythrocytes and washing, cell pellets were suspended in RPMI medium containing 10% fetal bovine serum, 1 mM sodium pyruvate, 4 mM L-glutamine, 1 × each of non-essential amino acids and vitamin mixture, and 100 U/ml penicillin–streptomycin (Lonza, Walkersville, MD, USA; hereafter called growth medium). In some experiments, CD4 T cells and CD8 T cells were enriched to a purity of ~95% by negative selection based on magnetic separation using IMAG (BD Biosciences, San Jose, CA, USA) ([31]). To stimulate CD4 and CD8 T cells, syngeneic naive irradiated splenocytes loaded with peptides were used as antigen-presenting cells at a ratio of 1:1. Cells were stimulated at a density of ~5 × 10^6 cells/ml in triplicates with or without the immunizing peptides (0–100 µg/ml) in growth medium. RNase 43–56 or HEL 46–61 were used as irrelevant controls. After 2 days, cells were pulsed with tritiated ^3[H]-thymidine (1 μCi/well; MP Biomedicals, Santa Ana, CA, USA), and 16 h later, proliferative responses were measured as counts per minute (cpm) using a Wallac liquid scintillation counter (Perkin Elmer, Waltham, MA, USA) ([26], [28], [30]).

CD8 T cells = assay: T cell proliferation assay, enriched CD8 T cells; assay type: cell-based, A/J mice; conditions: CD8 T cells ~95% purity from immunized mice; peptide-loaded irradiated splenocytes 1:1; Figure S3B
Protocol: as §1

Row | Substance | IL-17A production (in words) [2] | T cell responses ([3]; 10 μg/ml) [fold] | T cell responses ([3]; 100 μg/ml) [fold] | Myocarditis incidence (A/J mice (hearts)) [%] | Myocarditis incidence (animals with disease/total) (A/J mice (hearts)) | Inflammatory foci (A/J mice (hearts)) | also measured
1 | FAGLKKANERADLIAYLKQATK [MCC 82–103] | – | – | – | – | – | – | percent dext^+ CD4^high T cells (CD4 T cells [1]): 0.33 ± 0.03%
2 | Myhc 614–643: cardiac myosin heavy chain-α 614–643 (Ac-SLKLMATLFSTYASADTGDSGKGKGGKKKG; UniProt Q02566 614-643, looked up, fragment) | – | – | – | – | – | – | Myocarditis by N-terminally acetylated peptide (in words) (Balb/c mice): can induce significant myocarditis
3 | TRARARALVCTVWAISALVS [β1AR 171-190, 20-mer of mouse β1AR peptide library] | tended to be elevated | 2.68 | 5.13 | 0 | 0/5 | 0 | –
4 | TVWAISALVSFLPILMHWWR [β1AR 181-200, 20-mer of mouse β1AR peptide library] | tended to be elevated | 1.70 | 2.30 | 20 | 1/5 | 2 | Disease severity (in words) (A/J mice (hearts); individual immunization, non-acetylated peptides): mild disease; Th1 cytokine-producing cells (in words) (antigen-primed T cells): significantly enhanced
5 | YNTDGSTDYGILQINSR [HEL 46–61] | – | – | – | – | – | – | CD4 T cell proliferative response (in words) (CD4 T cells [4]): lacking; CD8 T cell proliferative response (in words) (CD8 T cells): lacking; T cell responses (in words) ([3]; proliferation, 0–100 µg/ml, 2 days + 16 h [3H]-thymidine, cpm): lacking
